Source: patent publication US20100247491A1, “Potentiation of Stem Cell Homing and Treatment of Organ Dysfunction or Organ Failure” (priority 2007, published 2010)

Key:
MSCs = assay: MSC migration towards SDF-1 in a transwell culture system; format: cell-based, Fisher 344 rats; details: pre-incubation of MSCs with the agent, FIG. 7
Source text: AMD 3100 is a non-peptide antagonist of CXCR4 and Diprotin A (Ile-Pro-Ile, Peptides International, Louisville, Ky.) is a commonly used example of a CD26 inhibitor. […] Thus, the invention provides for the use of a CD26 inhibitor for the treatment of renal organ dysfunction (i.e., damage or injury), particularly, in combination with the use of MSCs. For example, it is believed that inhibition of SDF-1 inactivation will increase the homing of administered MSCs to an injured kidney and potentiate renal repair.
Bone marrow-derived MSCs from Fisher 344 rats were used for in vitro experiments. […] In addition, cultured MSCs express functional CD26 and can effectively inactivate SDF-1. […] As a result of the in vitro data, it is reasoned that inhibiting CD26 will augment the SDF-1-CXCR4 mediated chemotactic activity of MSCs in vivo. Thus, the invention relates to pre-treatment or co-administration of MSCs with a CD26 inhibitor to augment the homing and renal protective functions of MSCs administered to a subject to treat a disease involving organ failure or organ dysfunction.

rats with I/R ARF = assay: I/R ARF rat model, CD26 inhibitor given before MSCs (Example II); format: in vivo; details: MSCs following Diprotin A
Source text: All procedures involving animals are approved by the respective Institutional Animal Care and Use Committees of the University of Utah, Veterans Affairs Medical Center (Salt Lake City, Utah), Indiana University (Indianapolis, Ind.), and the University of Hamburg (Hamburg, Germany). Animals are housed at a constant temperature and humidity, with a 12:12-h light-dark cycle, and have unrestricted access to a standard diet and tap water. Adult male Sprague-Dawley (SD) and Fisher 344 (F344) rats weighing 200-300 g are preferably used (Charles River, Wilmington, Mass.).
I/R ARF is induced in isoflurane-anesthetized animals, and rectal temperature is maintained at 37° C. After a midabdominal laparatomy, kidneys are exposed and renal pedicles are clamped with atraumatic vascular clamps for about 40 min. […]
Quantification of cell numbers. CFDA-labeled green fluorescing cells are examined and quantified in kidneys at 2, 24, 36, 48, 60, and/or 72 h after ARF and cell infusions. Nuclei are stained with either Hoechst 33342 or propidium iodide, and nuclei are counted in at least three high-power fields (HPF) per section based on a calibrated confocal micrometer measurement bar. After this, total cell numbers of the studied tissue sections are calculated based on the number of nuclei and surface area of the section.
Renal function may be assessed by serum creatinine and/or blood urea nitrogen levels. […]

Sca-1+lin-donor cells = details: donor cells treated with 5 mM Diprotin A for 15 minutes before transplant; FIG. 4, Christopherson II et al. (2004); cited from earlier work

| Compound | MSC migration towards SDF-1 (MSCs) | renal function (serum creatinine and/or blood urea nitrogen) (rats with I/R ARF; by at least days 2 and/or 3, relative to MSC only treated animals) | migration of MSCs to the kidney (rats with I/R ARF; relative to MSC only treated animals) | homing of HSCs from the circulation to bone (Sca-1+lin-donor cells) |
| --- | --- | --- | --- | --- |
| c1cc(CN2CCCNCCNCCCNCC2)ccc1CN1CCCNCCNCCCNCC1 [AMD 3100] | decreased | – | – | – |
| H-Ile-Pro-Ile-OH [Diprotin A] | significantly increased | significantly improved renal function | increased migration of MSCs to the kidney | can increase homing of HSCs |
